According to publication PMC9653166 (Journal of medicinal chemistry, 2022):
Each block holds one molecule with its values, some of them ahead of it.

Key:
Sirt1-3 = settings: FdL substrate; cited from earlier work
Sirt3 [1] = target: T1, Sirt3 (Homo sapiens, UniProt Q9NTG7); assay: Coupled enzymatic deacetylation assay, Sirt3 with ACS2-acK642 peptide; assay type: biochemical; settings: for Effect on Sirt3 activity (in words): coupled assay, ACS2 peptide, 10 and 100 μM compound
T1 sequence (Q9NTG7 114-380): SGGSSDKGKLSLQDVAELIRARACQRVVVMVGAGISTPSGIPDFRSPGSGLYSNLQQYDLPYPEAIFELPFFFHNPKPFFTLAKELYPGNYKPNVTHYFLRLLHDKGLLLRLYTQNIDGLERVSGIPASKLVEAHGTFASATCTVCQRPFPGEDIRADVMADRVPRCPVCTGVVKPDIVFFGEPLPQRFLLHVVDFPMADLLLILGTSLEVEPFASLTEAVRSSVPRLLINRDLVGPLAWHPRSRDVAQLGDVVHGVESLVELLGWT

Sirt3 [2] = settings: cited from earlier work
Sirt2 = target: T2, Sirt2 (Homo sapiens, UniProt Q8IXJ6); assay: Coupled enzymatic deacetylation assay, Sirt2 with α-tubulin-acK25 peptide; assay type: biochemical; settings: coupled assay, 10 and 100 μM compound
T2 sequence (Q8IXJ6 43-356): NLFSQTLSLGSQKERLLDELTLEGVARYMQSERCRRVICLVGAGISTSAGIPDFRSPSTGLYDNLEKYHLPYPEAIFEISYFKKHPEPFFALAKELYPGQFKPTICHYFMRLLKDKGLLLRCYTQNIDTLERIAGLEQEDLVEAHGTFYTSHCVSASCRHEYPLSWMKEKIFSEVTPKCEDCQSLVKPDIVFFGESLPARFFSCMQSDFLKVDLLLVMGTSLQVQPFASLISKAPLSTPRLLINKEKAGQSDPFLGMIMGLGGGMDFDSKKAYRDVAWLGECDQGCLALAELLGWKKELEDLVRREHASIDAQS

Sirt5 [3] = target: T3, Sirt5 (Homo sapiens, UniProt Q9NXA8); assay: Microscale thermophoresis binding to Sirt5
T3 sequence (Q9NXA8 34-302): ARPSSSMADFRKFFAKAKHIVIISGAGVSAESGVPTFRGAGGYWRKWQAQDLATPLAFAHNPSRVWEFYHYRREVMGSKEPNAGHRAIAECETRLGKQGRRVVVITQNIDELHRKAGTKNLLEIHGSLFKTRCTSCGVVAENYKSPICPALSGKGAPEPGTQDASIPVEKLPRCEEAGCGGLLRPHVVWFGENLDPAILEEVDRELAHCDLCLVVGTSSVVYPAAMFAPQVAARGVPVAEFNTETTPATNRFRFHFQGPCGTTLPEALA

GDH acetylation = assay: GDH immunoprecipitation and Lys acetylation Western blot, MDA-MB-231 cells; assay type: cell-based, human; settings: 50 μM
Sirt5 [4] = target: T3, Sirt5; assay: Coupled enzymatic desuccinylation assay, Sirt5 with CPS1-succK537 peptide; assay type: biochemical
Sirt3 [5] = target: T1, Sirt3; assay: Microscale thermophoresis binding to Sirt3
Sirt3 [6] = target: T1, Sirt3; assay: Sirt3-dependent deacetylation of a panel of eleven acetylated peptides; assay type: biochemical
Sirt3 [7] = target: T4, Sirt3 (Homo sapiens, UniProt Q9NTG7); assay: Cellular SIRT3 deacetylase activity assay; assay type: cell-based; settings: MDA-MB-231 cells, 50 and 100 μM, 3 h
T4 sequence (Q9NTG7 1-399): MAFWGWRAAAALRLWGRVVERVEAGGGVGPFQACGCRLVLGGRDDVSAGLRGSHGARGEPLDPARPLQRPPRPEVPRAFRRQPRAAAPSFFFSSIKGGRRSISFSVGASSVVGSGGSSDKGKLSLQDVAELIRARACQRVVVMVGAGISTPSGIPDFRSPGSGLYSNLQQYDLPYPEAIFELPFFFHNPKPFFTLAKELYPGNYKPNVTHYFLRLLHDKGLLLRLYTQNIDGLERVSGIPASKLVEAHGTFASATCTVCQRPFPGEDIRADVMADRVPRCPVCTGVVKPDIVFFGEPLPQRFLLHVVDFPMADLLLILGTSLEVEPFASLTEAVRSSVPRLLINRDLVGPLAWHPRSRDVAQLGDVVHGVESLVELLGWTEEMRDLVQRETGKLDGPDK

Sirt6 = Sirt6 (Homo sapiens, UniProt Q8N6T7); assay: Sirt6 activity test; assay type: biochemical; settings: 100 μM compound
Sirt6, sequence (Q8N6T7 whole entry): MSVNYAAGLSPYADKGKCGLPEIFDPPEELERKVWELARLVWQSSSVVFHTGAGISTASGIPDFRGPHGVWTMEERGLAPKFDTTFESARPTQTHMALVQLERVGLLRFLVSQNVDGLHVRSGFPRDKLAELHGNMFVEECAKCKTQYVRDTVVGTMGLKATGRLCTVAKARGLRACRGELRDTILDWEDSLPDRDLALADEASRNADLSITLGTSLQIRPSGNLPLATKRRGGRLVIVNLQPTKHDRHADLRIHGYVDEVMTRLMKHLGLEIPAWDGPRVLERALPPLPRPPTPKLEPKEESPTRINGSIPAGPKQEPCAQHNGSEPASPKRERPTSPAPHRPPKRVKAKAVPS

Sirt4 = target: T5, Sirt4 (Homo sapiens, UniProt Q9Y6E7); assay: Sirt4 activity test; assay type: biochemical; settings: 100 μM compound
T5 sequence (Q9Y6E7 29-314): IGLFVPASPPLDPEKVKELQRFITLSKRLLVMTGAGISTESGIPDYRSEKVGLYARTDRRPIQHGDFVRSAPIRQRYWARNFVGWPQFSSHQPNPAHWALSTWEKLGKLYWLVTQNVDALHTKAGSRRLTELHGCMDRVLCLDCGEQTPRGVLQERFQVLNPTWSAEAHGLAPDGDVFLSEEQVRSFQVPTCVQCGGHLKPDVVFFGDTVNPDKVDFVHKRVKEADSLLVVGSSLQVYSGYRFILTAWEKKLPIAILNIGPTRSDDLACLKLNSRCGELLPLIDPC

Sirt3 [8] = target: T1, Sirt3; assay: MS-based deacetylation assay, Sirt3 with ACS2 peptide; assay type: biochemical; settings: 100 μM compound
Sirt1 = target: T6, Sirt1 (Homo sapiens, UniProt Q96EB6); assay: Coupled enzymatic deacetylation assay, Sirt1 with p53-acK381 peptide; assay type: biochemical; settings: 10 and 100 μM compound
T6 sequence (Q96EB6 1-747): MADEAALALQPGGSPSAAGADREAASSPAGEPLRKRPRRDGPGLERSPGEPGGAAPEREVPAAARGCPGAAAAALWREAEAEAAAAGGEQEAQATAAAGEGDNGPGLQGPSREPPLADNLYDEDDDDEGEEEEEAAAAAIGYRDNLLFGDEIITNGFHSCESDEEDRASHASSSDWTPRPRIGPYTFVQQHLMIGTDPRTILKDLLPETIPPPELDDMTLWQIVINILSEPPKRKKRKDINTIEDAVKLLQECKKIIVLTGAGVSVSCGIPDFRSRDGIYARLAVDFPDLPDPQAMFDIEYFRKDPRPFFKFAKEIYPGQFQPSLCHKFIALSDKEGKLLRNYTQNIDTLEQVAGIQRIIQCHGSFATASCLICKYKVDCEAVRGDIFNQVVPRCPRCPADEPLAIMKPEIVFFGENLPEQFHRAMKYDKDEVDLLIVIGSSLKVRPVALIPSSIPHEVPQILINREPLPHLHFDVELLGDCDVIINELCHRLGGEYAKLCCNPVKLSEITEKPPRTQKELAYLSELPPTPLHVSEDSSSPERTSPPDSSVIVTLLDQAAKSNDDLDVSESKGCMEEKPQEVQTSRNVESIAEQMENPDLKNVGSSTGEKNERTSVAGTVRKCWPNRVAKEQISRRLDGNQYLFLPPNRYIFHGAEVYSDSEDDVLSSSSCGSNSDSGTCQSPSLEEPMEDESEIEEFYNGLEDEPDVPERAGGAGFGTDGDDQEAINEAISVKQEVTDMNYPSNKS

Sirt5 [9] = target: T3, Sirt5; assay: MS-based desuccinylation assay, Sirt5 with CPS1-succK537; assay type: biochemical; settings: 100 μM compound
Sirt5 [10] = target: T7, Sirt5 (Homo sapiens, UniProt Q9NXA8); assay: PDC deacylation assay: PDHA1 desuccinylation by recombinant Sirt5; assay type: biochemical; settings: 100 μM compound, PDHA1 from porcine heart tissue
T7 sequence (Q9NXA8 37-310): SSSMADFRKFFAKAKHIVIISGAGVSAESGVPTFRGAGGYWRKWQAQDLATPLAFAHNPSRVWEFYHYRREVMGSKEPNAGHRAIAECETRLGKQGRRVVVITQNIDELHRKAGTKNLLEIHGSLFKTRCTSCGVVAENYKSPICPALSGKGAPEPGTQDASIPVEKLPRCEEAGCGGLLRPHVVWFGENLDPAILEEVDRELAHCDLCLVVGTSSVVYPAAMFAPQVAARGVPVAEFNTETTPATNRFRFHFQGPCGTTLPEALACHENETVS

Sirt5 [11] = target: T3, Sirt5; assay: NAD+ titration kinetics of Sirt5; assay type: biochemical; settings: in presence of 200 μM compound (without compound 1.6 ± 0.1)
GOT1 acetylation = GOT1 acetylation Western blot in pancreatic cancer cell lines; assay type: cell-based
MDA-MB-231 cells = assay: Ammonia level assay, MDA-MB-231 cells; assay type: cell-based, human; settings: 50 μM, 4 and 24 h
GDH = GDH activity assay in MDA-MB-231 cell lysates; assay type: cell-based, human; settings: wild-type MDA-MB-231 cells, 50 μM, 4 or 24 h
glutaminase (GLS) = assay: GLS activity assay in MDA-MB-231 cell lysates; assay type: cell-based, human; settings: MDA-MB-231 cells, 50 μM, 4 and 24 h

Effect on Sirt3 activity (in words) (Sirt3 [1]): Sirt3 activation
Structure (SMILES): CCOC(=O)C1=CN(Cc2ccccc2)C=C(C(=O)OCC)C1c1ccccc1 [Compound 1]
Sirt1-3 activation in the FdL assay (Sirt1-3): Sirt1-3 activating properties

Structure (SMILES): C=CCc1ccc(O)c(-c2ccc(O)c(CC=C)c2)c1 [honokiol]
Sirt3 activation (Sirt3 [2]): weakly activate Sirt3

Structure (SMILES): CCOC(=O)C1=CN(C(=O)c2cc(OC)c(OC)c(OC)c2)C=C(C(=O)OCC)C1c1ccccc1 [Compound 31, Diethyl 4-Phenyl-1-(3,4,5-trimethoxybenzoyl)-1,4-dihydropyridine-3,5-dicarboxylate]
Effect on Sirt2 activity (in words) (Sirt2): no significant effects
Kd (Sirt5 [3]): 83 ± 19 µM
GDH overall Lys acetylation (GDH acetylation): decreased acetylation levels
Effect on Sirt5 activity (in words) (Sirt5 [4]; coupled assay, 10 and 100 μM compound): no significant effects
Kd (Sirt3 [5]): 32 ± 7 µM
Stimulation of Sirt3-dependent deacetylation of all panel substrates (Sirt3 [6]; 10 μM compound): weakly
Stimulation of Sirt3-dependent deacetylation of all panel substrates (Sirt3 [6]; 100 μM compound): significantly
FdL deacetylation (Sirt3) activity in cell lysates (Sirt3 [7]): significant increase in FdL deacetylation activity
Effect on Sirt6 (Sirt6): no significant effects
Effect on Sirt4 (Sirt4): partial Sirt4 inhibition
Sirt3 activation in MS-based assay (Sirt3 [8]): activated Sirt3-dependent deacetylation of the ACS2 peptide
Effect on Sirt1 activity (in words) (Sirt1): no significant effects
Sirt3 activity (Sirt3 [1]; 100 μM compound): more than 400%

Effect on Sirt2 activity (in words) (Sirt2): no significant effects
Sirt5-dependent desuccinylation of PDHA1 (Sirt5 [10]): clearly enhanced
EC50 (Sirt5 [4]): ~40 µM
Sirt5 activation (CPS1-succK537 desuccinylation) (Sirt5 [4]; 100 μM compound): 3- to 3.5 fold
Maximum activation of Sirt5 (Sirt5 [4]; titration, beyond 200 μM compound concentration): 5 fold
NAD+ kinetics vmax of Sirt5 (Sirt5 [11]): 2.3 ± 0.1 nmol/mg/min
Kd (Sirt3 [5]): 138 ± 37 µM
Effect on Sirt6 (Sirt6): weak, partial inhibition
Effect on Sirt4 (Sirt4): weak, partial inhibition
Effect on Sirt1 activity (in words) (Sirt1): no significant effects
Effect on Sirt3 activity (in words) (Sirt3 [1]): no significant effects
Structure (SMILES): CCOC(=O)C1=CN(C(=O)c2ccccc2)C=C(C(=O)OCC)C1c1ccsc1 [Compound 30, Diethyl 1-Benzoyl-4-(thiophen-3-yl)-1,4-dihydropyridine-3,5-dicarboxylate]
Sirt5 activation in MS-based assay (Sirt5 [9]): confirmed the activation of Sirt5-dependent desuccinylation
GOT1 acetylation (GOT1 acetylation; S2–013 and Capan1 cell lines, 20 μM, 24 h): decrease GOT1 acetylation
Effect on GOT1 acetylation (GOT1 acetylation; SIRT5 knockout KPC and KPCS cell lines): negligible
Ammonia accumulation (MDA-MB-231 cells): blocked ammonia accumulation
GDH activity in cell lysates (GDH): decreased GDH activity
GLS activity in cell lysates (glutaminase (GLS)): decreased GLS activity
